From patent US6169181A, “Compounds useful to treat retroviral infections” (Pharmacia & Upjohn Company, priority 1998, dated 2001) come the findings set out here.

Values joined by “and” are separate entries in the source; they are usually repeats but may differ in a detail not shown here. Equal entries are not always repeated. Where two headings read alike, the source gives them in different places.

The target of assay [1] is T1, single chain tethered (tandem) HIV protease (HIV-1 M:B_HXB2R, UniProt P04585).
T1 construct: purified enzyme, FITC/biotin substrate assay
Nature of the assay: Tandem HIV protease assay. The settings on record: read-out: FITC KI; Table II; enzyme HIV1TANDEM. The format is biochemical. As to the method:
In the enzyme inhibition assay described above, the sensitivity of Ki value determination is in part limited by the ability to continue to lower the enzyme concentration for compounds with high binding affinity. To prevent de-dimerization at low enzyme concentration, a tandemly linked enzyme is prepared in which the two monomers are covalently linked by an appropriate stretch of amino acid residues. Using the latter enzyme, the sensitivity of the inhibition assay is improved since much lower enzyme concentration can be utilized, as compared to the condition using the wild-type enzyme.
The starting inhibitor concentrations are determined based on preliminary enzyme inhibition screening results which estimate the expected potency of the inhibitor. Inhibitor concentrations are then prepared using the Biomek 1000 (Beckman) and the Quadra 96 (Tomtec). Substrate (biotinylated at the amino terminal arginine and fluorescently labeled with fluorescein at the carboxyl terminal lysine), inhibitor and the tandem enzyme are allowed to react in solution at pH 5.5 (buffers identical to those used with the native dimeric enzyme) in the dark for 96 hours. Streptavidin coated polystyrene beads are added to stop the reaction. The labeled cleavage product is separated from unreacted substrate via filtration. Residual fluorescence is quantitated with the Idexx SM2000 (Idexx) and the resulting data are analyzed using the NLLSF program.

A further assay has as its target HIV-1 protease (Human immunodeficiency virus type 1 group M subtype B, UniProt P04585). In words: biochemical. The method in brief: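 A substrate biotinylated at the N-terminal arginine and FITC-labelled at the C-terminal lysine was incubated with HIV-1 protease (10 μl of 0.1 μM) and compound for 1 h in the dark at room temperature. Buffer was 0.1 M sodium acetate pH 5.5, 1.0 M NaCl, 0.05% NP-40. Labelled product was separated from substrate using streptavidin beads and filtration, and the fluorescence gave percent inhibition.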

[2] abbreviates: Table II, enzyme HIV-1, DOSE 0.123 (unit not given).
[3] abbreviates: Table II, enzyme HIV-1, DOSE 0.370 (unit not given).
Where [4] appears, read: Table II, enzyme HIV-1, DOSE 1.100 (unit not given).
Where [5] appears, read: Table II, enzyme HIV-1, DOSE 3.300 (unit not given).
Setting [6] is: Table II, enzyme HIV-1, DOSE 10.000 (unit not given).
Where [7] appears, read: Table II, enzyme HIV-1, DOSE 30.000 (unit not given).

What is called Ki is the equilibrium dissociation constant of an inhibitor or competing ligand from its target. Regarding `Cn1cnc(S(=O)(=O)Nc2cccc(C(C3=C(O)CC(CCc4ccccc4)(CCC(F)(F)F)OC3=O)C(C)(C)C)c2)c1` (single isomer, unassigned) [Example 276, N-[3-(R or S)-[1-[5,6-dihydro-4-hydroxy-2-oxo-6-(R or S)-(2-phenethyl)-6-(3,3,3-trifluoropropyl)-2H-pyran-3-yl]-2,2-dimethylpropyl]phenyl]-1-methyl-1H-imidazole-4-sulfonamide], in assay [1], the Ki came to 33 nM. Further, the “PROTEASE % INHIB.” value on HIV-1 protease (setting [2]) amounted to 16.49%; at HIV-1 protease (setting [3]), 38.95%; on HIV-1 protease (setting [4]), 66.1%; on HIV-1 protease (setting [5]), 90.01%; at HIV-1 protease (setting [6]), 90.97%; at HIV-1 protease (setting [7]), 87.6%.
As to `CCCC1(CCc2ccccc2)CC(O)=C(C(c2cccc(NS(=O)(=O)c3ccccn3)c2)C(C)(C)C)C(=O)O1` (single isomer, unassigned) [Example 278, N-[3-(R or S)-[1-[5,6-dihydro-4-hydroxy-2-oxo-6-(2-phenethyl)-[6-(R or S)-propyl]-2H-pyran-3-yl]-2,2-dimethylpropyl]phenyl]-2-pyridinesulfonamide], in assay [1], the inhibition constant (Ki) stood at 0.04 nM. In addition, the “PROTEASE % INHIB.” value came to 76.76% at HIV-1 protease (setting [2]); 86.99% on HIV-1 protease (setting [3]); 95.6% on HIV-1 protease (setting [4]); 96.91% at HIV-1 protease (setting [5]); 93.32% on HIV-1 protease (setting [6]); 86.18% on HIV-1 protease (setting [7]).
On to `CCCC1(CCC)CC(O)=C(C(c2cccc(NS(=O)(=O)c3ccc(C(F)(F)F)cn3)c2)C(C)(C)C)C(=O)O1` (single isomer, unassigned) [Example 285, 5-Trifluoromethyl-N-[3-(R or S)-[1-[4-hydroxy-2-oxo-6,6-di-n-propyl-5,6-dihydro-2H-pyran-3-yl]-2,2-dimethylpropyl]-phenyl]-2-pyridinesulfonamide], for which the Ki in assay [1] was determined as 0.015 nM. In addition, the “PROTEASE % INHIB.” value at HIV-1 protease (setting [2]) was 81.8%; on HIV-1 protease (setting [3]), 95.8%; at HIV-1 protease (setting [4]), 99.11%; at HIV-1 protease (setting [5]) it was 109.33%; on HIV-1 protease (setting [6]) it was 104.61%; on HIV-1 protease (setting [7]) it was 86.84%.
On to `CCCC1(CCC)CC(O)=C(C(c2cccc(NS(=O)(=O)c3ccc(C(F)(F)F)cn3)c2)C(C)(C)C)C(=O)O1` (single isomer, unassigned) [Example 286, 5-Trifluoromethyl-N-[3-(R or S)-[1-[4-hydroxy-2-oxo-6,6-di-n-propyl-5,6-dihydro-2H-pyran-3-yl]-2,2-dimethylpropyl]-phenyl]1-2-pyridinesulfonamide], for which, in assay [1], the Ki is 13.3 nM. Further, the “PROTEASE % INHIB.” value is given as 34.76% at HIV-1 protease (setting [2]); 68.74% on HIV-1 protease (setting [3]); 89.29% at HIV-1 protease (setting [4]); 93.11% on HIV-1 protease (setting [5]); 108.17% at HIV-1 protease (setting [6]); 95.31% on HIV-1 protease (setting [7]).
Turning to `CCC[C@@]1(CCc2ccccc2)CC(O)=C([C@@H](c2cccc(NS(=O)(=O)c3ccc(C#N)cn3)c2)C(C)(C)C)C(=O)O1` (single isomer, unassigned) [Example 300, 5-Cyano-N-[3(R or S)-(1-[5,6-dihydro-4-hydroxy-2-oxo-6(R or S)-(2-phenylethyl)-6-propyl-2H-pyran-3-yl]-2,2-dimethylpropyl)-phenyl]-2-pyridinesulfonamide], the Ki in assay [1] was found to be 0.1 nM. Besides, the “PROTEASE % INHIB.” value on HIV-1 protease is 90.61 and 99.05 and 111.45 and 109.19 and 105.56 and 104.91.
As to `CCCC1(CCc2ccccc2)CC(O)=C(C(c2cccc(NS(=O)(=O)c3cn(C)cn3)c2)C(C)(C)C)C(=O)O1` (single isomer, unassigned) [Example 307, N-[3(R or S)-[1-(5,6-Dihydro-4-hydroxy-2-oxo-6(R or S)-[2-phenylethyl]-6-propyl-2H-pyran-3-yl)-2,2-dimethylopropyl]phenyl]-1-methyl-1H-imidazole-4-sulfonamide], in assay [1], the Ki was 0.072 nM. In addition, the “PROTEASE % INHIB.” value on HIV-1 protease (setting [2]) was found to be 77.39%; on HIV-1 protease (setting [3]), 99.85%; at HIV-1 protease (setting [4]) it was 107.87%; on HIV-1 protease (setting [5]), 93.34%; at HIV-1 protease (setting [6]), 83.49%; on HIV-1 protease (setting [7]) it was 69.74%.
As to `CCC[C@@]1(CCc2ccccc2)CC(O)=C([C@@H](c2cccc(NS(=O)(=O)c3cn(C)cn3)c2)C(C)(C)C)C(=O)O1` (single isomer, unassigned) [Example 308, N-[3(R or S)-[1-(5,6-Dihydro-4-hydroxy-2-oxo-6(R or S)-[2-phenylethyl]-6-propyl-2H-pyran-3-yl)-2,2-dimethylpropyl]phenyl]-1-methyl-1H-imidazole-4-sulfonamide], the inhibitory constant (Ki) in assay [1] came to 0.074 nM. The “PROTEASE % INHIB.” value is 75.06% on HIV-1 protease (setting [2]); 108.14% at HIV-1 protease (setting [3]); 95.01% on HIV-1 protease (setting [4]); 108.43% at HIV-1 protease (setting [5]); 110.75% at HIV-1 protease (setting [6]); 96.28% at HIV-1 protease (setting [7]).
As for `CCC[C@@]1(CCc2ccccc2)CC(O)=C([C@@H](c2cccc(NS(=O)(=O)c3cn(C)cn3)c2)C(C)(C)C)C(=O)O1` (single isomer, unassigned) [Example 310, N-[3(R or S)-[1-(5,6-Dihydro-4-hydroxy-2-oxo-6(R or S)-[2-phenylethyl]-6-propyl-2H-pyran-3-yl)-2,2-dimethylpropyl]phenyl]-1-methyl-1H-imidazole-4-sulfonamide], the Ki in assay [1] came out at 1.5 nM. Besides, the “PROTEASE % INHIB.” value at HIV-1 protease (setting [2]) came to 16.81%; at HIV-1 protease (setting [3]), 50.11%; at HIV-1 protease (setting [4]), 78.69%; at HIV-1 protease (setting [5]) it was 100.22%; on HIV-1 protease (setting [6]), 124.77%; at HIV-1 protease (setting [7]), 110.91%.
Take `CCC[C@@]1(CCc2ccccc2)CC(O)=C([C@H](CC)c2cccc(NS(=O)(=O)c3ccc(N)cn3)c2)C(=O)O1` (single isomer, unassigned) [Example 314, 5-Amino-N-[3(R or S)-(1-[5,6-dihydro-4-hydroxy-2-oxo-6(R or S)-(2-phenylethyl)-6-propyl-2H-pyran-3-yl]propyl)phenyl]-2-pyridinesulfonamide]: in assay [1], the Ki turned out to be 0.7 nM. Also, the “PROTEASE % INHIB.” value on HIV-1 protease (setting [2]) stood at 82.92%; at HIV-1 protease (setting [3]) it was 96.14%; at HIV-1 protease (setting [4]), 114.86%; at HIV-1 protease (setting [5]) it was 100.76%; at HIV-1 protease (setting [6]), 88.75%; at HIV-1 protease (setting [7]) it was 73.42%.
On to `CCC[C@@]1(CCc2ccccc2)CC(O)=C([C@H](CC)c2cccc(NS(=O)(=O)c3ccc(N)cn3)c2)C(=O)O1` (single isomer, unassigned) [Example 315, 5-Amino-N-[3(R or S)-(1-[5,6-dihydro-4-hydroxy-2-oxo-6(R or S)-(2-phenylethyl)-6-propyl-2H-pyran-3-yl]propyl)phenyl]-2-pyridinesulfonamide], for which the Ki in assay [1] worked out at 0.029 nM. Besides, the “PROTEASE % INHIB.” value amounted to 79.95% on HIV-1 protease (setting [2]); 87.25% at HIV-1 protease (setting [3]); 88.08% on HIV-1 protease (setting [4]); 97.03% on HIV-1 protease (setting [5]); 100.2% at HIV-1 protease (setting [6]); 106.4% at HIV-1 protease (setting [7]).
